# Experimental data taken from paper PMC3877196 (Toxicon : official journal of the International Society on …, 2013).
# *1 amine or outer side, *2 acyl side, *3 side chain or, on linkers, in order; H or OH if unused. Where a SMILES comes first, the peptide text is derived from it. CO = O=C([*:1])[*:2]
# Molecular target: T1, IXOSP (Ixodes scapularis salivary serine protease) (Ixodes scapularis, UniProt Q4PMM2)
# T1 sequence (Q4PMM2 51-273): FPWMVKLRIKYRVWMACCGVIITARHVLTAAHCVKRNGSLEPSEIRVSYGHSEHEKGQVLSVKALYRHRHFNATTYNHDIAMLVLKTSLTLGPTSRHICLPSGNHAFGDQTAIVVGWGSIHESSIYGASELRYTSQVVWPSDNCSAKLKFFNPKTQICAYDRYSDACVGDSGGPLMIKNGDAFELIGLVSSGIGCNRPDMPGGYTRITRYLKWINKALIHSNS
# Experiment: amidolytic assay, pNA release at […] nm
# Format: biochemical
# Conditions: read-out: Inhibition of activity (% ± SD)
smiles,measurement,value
CC(C)[C@H](NC(=O)[C@H](CCCNC(=N)N)NC(=O)N[C@@H](Cc1ccccc1)C(=O)O)C(=O)N[C@H](C=O)CCCNC(=N)N [Antipain] ({Phe-CO}-Arg-Val-Arg-aldehyde),inhibition at 30 µM,55 ± 4%
